Source: patent US10563272B2, “Compositions comprising Metarhizium fungi and use thereof as a pesticide” (Cotton Research and Development Corporation, priority 2015, dated 2020)

Columns and labels:
lacewings = assay: Rate trial on conventional cotton, Norwood 2012 (Example 10): lacewings; assay type: in vivo, Chrysopa spp., Micromus tasmaniae; details: P>0.05
Experimental: This trial was conducted on commercial conventional cotton crops on a farm at Norwood (29° 28'S, 149° 50′E) near Moree, NSW, from 28 Feb. to 21 Mar. 2012. The cotton used for the trial was at the early squaring stage, when it was attractive to green mirids (Khan et al. 2004).
(§1) The efficacy of the following treatments against green mirids and predatory insects were evaluated: • 1. 250 mL/ha DAT 511 spore in oil (1×10^7 spores/ml); • 2. 500 mL/ha DAT 511 spore in oil (1×10^7 spores/ml); • 3. 1 L/ha DAT 511 spore in oil (1×10^7 spores/ml); • 4. 62.5 mL/ha of Fipronil; and • 5. Unsprayed (negative control).
(§2) The treatment plots were arranged in a randomized complete block design with six replicates per treatment. Each replicated plot measured 40 m wide (40 rows) and 90 m long.
Foliar application of each treatment was made on 28 Feb. (for both green mirids and beneficial insects) and 13 Mar. […]
Pre-treatment counts of adult and nymph green mirids, predatory beetles, predatory bugs, predatory lacewings and spiders were made by visual inspection of whole cotton plants. Both adults and nymphs of beneficial insects were counted. Plants were assessed in randomly selected one-metre lengths of row of each treatment replicate (i.e. 6 m per treatment). […] Data are expressed as numbers of green mirid adults and nymphs counted per metre per treatment.

apple dimpling bugs = assay: Rate trial on conventional cotton refuge crops, Undabri 2012 (Example 12): apple dimpling bugs; assay type: in vivo, Campylomma liebknechti
Experimental: This trial was conducted using commercial conventional cotton refuge crops at Undabri in Goondiwindi (28° 55'S, 150° 31′E) from 14 Feb. to 6 Mar. 2012.
as §1, with “mirids, green vegetable bugs” for “mirids”, “was assessed:” for “were evaluated:”, “fipronil;” for “of Fipronil;”
The plots were arranged in a randomized complete block design with three replicates per treatment. Each replicated plot measured 8 m (8 rows) wide and 250 m long.
Foliar applications of each treatment were made on 14 Feb. 2012 using a ground spray rig fitted with flat fan nozzles to achieve a droplet size of 200 μm. All insecticide formulations were water miscible. All treatments were applied using a spray volume of 100 L/ha. The untreated (negative control) plot was left unsprayed and the plot treated with synthetic insecticide received two applications similar to, and on the same date as, the plots treated with the fungus.
For each replicate, visual counts of adults and nymphs of green mirids, green vegetable bugs (GVB), apple dimpling bugs and predatory insects on whole cotton plants were made in a randomly selected 1 m length of row of cotton plants (i.e. 6 m per treatment). […]

[1] = tested on: green mirid adults and nymphs; assay: Bollgard II cotton, Auscott-Togo 2012-13, Field 77 (Experiment 1): green mirids; assay type: in vivo, Creontiades dilutus; details: 62.5 mL/ha
Experimental: (§3) Two separate trials (Experiment 1 in Field 77; Experiment 2 in Field 63) were conducted in Bollgard II cotton crops on a commercial cotton farm at Auscott-Togo near Narrabri, New South Wales from 11 Feb. to 5 Mar. 2013 (Field 77) and 19 Feb. to 6 Mar. 2013 (Field 63). The cotton used for each of the trials was at the late squaring to pod setting and maturation stages which was fairly attractive to green mirids.
as §1, with “In both trials, the” for “The”, “was” for “were”, “fipronil;” for “Fipronil;”
as §2
(§4) Foliar application of each treatment was made on 28 Feb. (for both green mirids and beneficial insects) and 13 Mar. 2012 (for beneficial insects alone) using a ground spray rig fitted with flat fan nozzles to achieve a droplet size of 200 μm. The treatment was applied during the mornings when temperatures were between 20° C. and 28° C. The timing of treatment was based on the IPM Guidelines and recommendations by CottonLogic to use an economic threshold of 0.5 green mirids per metre (Deutscher and Wilson 1999; Khan et al. 2004).
(§5) Pre-treatment counts of green mirid adults and nymphs, predatory beetles, predatory bugs, predatory lacewings and spiders were made by visual inspection of whole cotton plants. Both adults and nymphs of beneficial insects were counted. Plants were assessed in randomly selected one-metre lengths of row of each replicate (i.e. 6 m per treatment). Post-treatment counts were made 3, 7, 14 and 21 days after treatment. Data are expressed as numbers of green mirid adults and nymphs counted per metre for each treatment.

predatory bugs = assay: Bollgard II cotton, Auscott-Togo 2012-13, Field 77 (Experiment 1): predatory bugs; assay type: in vivo, Hemiptera (Nabidae, Lygaeidae, Pentatomidae); details: 62.5 mL/ha
Experimental: as §3
as §1, with “In both trials, the” for “The”, “was” for “were”, “fipronil;” for “Fipronil;”
as §2, §4, §5

[2] = tested on: green mirid adults and nymphs; assay: Bollgard II cotton, Auscott-Togo 2012-13, Field 63 (Experiment 2): green mirids; assay type: in vivo, Creontiades dilutus; details: 62.5 mL/ha
Experimental: as §3
as §1, with “In both trials, the” for “The”, “was” for “were”, “fipronil;” for “Fipronil;”
as §2, §4, §5

predatory beetles = assay: Bollgard II cotton, Auscott-Togo 2012-13, Field 63 (Experiment 2): predatory beetles; assay type: in vivo, Coleoptera (Coccinellidae, Melyridae); details: 62.5 mL/ha
Experimental: as §3
as §1, with “In both trials, the” for “The”, “was” for “were”, “fipronil;” for “Fipronil;”
as §2, §4, §5

SMILES: N#Cc1nn(-c2c(Cl)cc(C(F)(F)F)cc2Cl)c(N)c1[S+]([O-])C(F)(F)F (centres unmarked) [fipronil]
- number of lacewings versus unsprayed (control) plots (lacewings): No significant difference
- apple dimpling bug adults per metre versus the unsprayed plot (apple dimpling bugs; 3, 7, 14 and 21 DAT, P<0.01): significantly fewer
- apple dimpling bug nymphs per metre versus unsprayed plots (apple dimpling bugs; 7 DAT only, P<0.05): significantly lower
- No. green mirid adults and nymphs per meter ([1]; 3 DAT): 1.33 ± 0.33 a per meter
- No. green mirid adults and nymphs per meter ([1]; 7 DAT): 0.00 ± 0.00 b per meter
- No. green mirid adults and nymphs per meter ([1]; 14 DAT): 0.00 ± 0.00 a per meter
- No. green mirid adults and nymphs per meter ([1]; 21 DAT): 0.00 ± 0.00 a per meter
- No. green mirid adults and nymphs per meter ([1]; pre-spray counts): 4.33 ± 0.67 a per meter
- number of predatory bugs per meter (predatory bugs; 3 DAT): 0.33 ± 0.00 a per meter
- number of predatory bugs per meter (predatory bugs; 7 DAT): 0.00 ± 0.00 a per meter
- number of predatory bugs per meter (predatory bugs; 14 DAT): 0.00 ± 0.00 a per meter
- number of predatory bugs per meter (predatory bugs; 21 DAT): 0.67 ± 0.33 a per meter
- number of predatory bugs per meter (predatory bugs; pre-spray counts): 0.33 ± 0.33 a per meter
- No. green mirid adults and nymphs per meter ([2]; 3 DAT): 0.33 ± 0.33 a per meter
- No. green mirid adults and nymphs per meter ([2]; 7 DAT): 0.00 ± 0.00 a per meter
- No. green mirid adults and nymphs per meter ([2]; 14 DAT): 0.33 ± 0.33 a per meter
- No. green mirid adults and nymphs per meter ([2]; 21 DAT): 0.00 ± 0.00 a per meter
- No. green mirid adults and nymphs per meter ([2]; pre-spray counts): 1.67 ± 0.33 a per meter
- No. predatory beetles per meter (predatory beetles; 3 DAT): 2.67 ± 0.33 a per meter
- No. predatory beetles per meter (predatory beetles; 7 DAT): 2.33 ± 0.33 a per meter
- No. predatory beetles per meter (predatory beetles; 14 DAT): 0.67 ± 0.33 a per meter
- No. predatory beetles per meter (predatory beetles; 21 DAT): 1.67 ± 0.33 a per meter
- No. predatory beetles per meter (predatory beetles; pre-spray counts): 5.67 ± 0.67ab per meter
